From article PMC12538275, “Fat or flat? The impact of dipole moment vectors on non-covalent interactions between aromatic tags and macromolecules” (Inorganic Chemistry Frontiers, 2025)

Experiments:
SmCB1 [1] = molecular target: SmCB1 (Schistosoma mansoni, UniProt Q8MNY2, T185A/T300A); experiment: biochemical; settings: for Ki SmCB1: kinetic activity assay, triplicate, pH 5.5, 37 °C
Text: (§1) Enzymatic activity was monitored either fluorometrically with peptide–AMC substrates, which release 7-amino-4-methylcoumarin (AMC) as a fluorescent product, or spectrophotometrically with peptide–pNA substrates, which liberate p-nitroaniline (pNA). Reaction rates were obtained from the slopes of the linear progress curves and expressed as relative fluorescence units per second (RFU s^−1) or as absorbance units per second (AU s^−1). […] The standard errors of measurements refer to the non-linear regression analysis.
(§2) A non-glycosylated mutant of the SmCB1 zymogen was expressed in the yeast Pichia pastoris, activated by S. mansoni legumain and purified as described previously.[25,43,58] Kinetic measurements were performed in triplicate in 96-well microplates (100 μL assay volume) at 37 °C. […] Substrate hydrolysis was measured fluorometrically in an Infinite M1000 microplate reader (Tecan) at excitation and emission wavelengths of 360 and 465 nm, respectively. Inhibition assays for human cathepsins and cruzain are described in Supplemental Experimental Procedures.

human cathepsin B = molecular target: T1, human cathepsin B (Homo sapiens, UniProt P07858); experiment: Cathepsin B inhibition assay with chromogenic substrate Cbz-Arg-Arg-pNA; assay type: biochemical; settings: kinetic activity assay; for Ki: read-out: Ki Cat B
T1 construct: purchased Calbiochem
Text: as §1
(§3) Enzymatic Assay Materials
(§4) Human cathepsin B was purchased from Calbiochem, and human cathepsins K, L, and S from Enzo. […]
(§5) Stock solutions of the […]
inhibitors and substrates were prepared in DMSO.
Cathepsin B Inhibition Assay
Kinetic measurements were performed in duplicate in cuvettes (1 mL assay volume) at 37 °C, as described.18-20 Human cathepsin B was activated by a 1:500 dilution with assay buffer (100 mM sodium phosphate, pH 6.0, 100 mM NaCl, 5 mM EDTA, 0.01% Brij 35) containing 5 mM DTT and then incubated at 37 °C for 30 min.
Into a cuvette containing 960 µL assay buffer, 5 µL of the chromogenic substrate Cbz-Arg-Arg-pNA, DMSO and inhibitor solution (15 µL) were pipetted. After addition of cathepsin B (20 µL), substrate hydrolysis was measured spectrophotometrically in a VARIAN/Bio-50/100 photometer at 405 nm for 20 min. […]

[2] = test system: newly transformed schistosomula (NTS) of S. mansoni; experiment: Phenotypic assay with newly transformed schistosomula (NTS); assay type: cell-based, Schistosoma mansoni; settings: for Severity score: scale 0 (no effect) to 4 (most severe); for anti-schistosomal effect against NTS (in words): 1 and 10 μM, three days
Method: Newly transformed schistosomula (NTS) of S. mansoni were prepared by mechanically transforming infective larvae (cercariae) as described previously.[47,57] NTS (200–300 parasites) were incubated in flat-bottomed 96-well plates in 200 μL of Basch medium 169[60] containing 5% FBS (ThermoFisher Scientific), 100 U mL^−1 penicillin and 100 μg mL^−1 streptomycin (ThermoFisher Scientific), at 5% CO2 and 37 °C.[61,62] Inhibitors were added at final concentration of 1 or 10 μM,[43,47] and changes in phenotype were observed every 24 h for up to 72 h. A constrained nomenclature of ‘descriptors’[49,57] is used to record the multiple and dynamic changes in movement, shape and translucence that the schistosome parasite is capable of (Fig. S1). These descriptors are then converted into an ordinal ‘severity score’ system from 0 (no effect) to 4 (maximum effect), which allows for the relative comparison of compound effects, as described previously.[63]

[3] = set-up: method as in doi:10.1135/cccc20011375; settings: cited from earlier work
SmCB1 [4] = experiment: biochemical; settings: ratio of Ki values
Text: as §1, §2

cruzain = molecular target: T2, cruzain (Trypanosoma cruzi, UniProt P25779); experiment: Cruzain inhibition assay; assay type: biochemical; settings: duplicate measurements
T2 construct: Recombinant cruzain, consisting of the catalytic domain without the C-terminal extension; made in house
T2 sequence (P25779 123-337 limits assumed): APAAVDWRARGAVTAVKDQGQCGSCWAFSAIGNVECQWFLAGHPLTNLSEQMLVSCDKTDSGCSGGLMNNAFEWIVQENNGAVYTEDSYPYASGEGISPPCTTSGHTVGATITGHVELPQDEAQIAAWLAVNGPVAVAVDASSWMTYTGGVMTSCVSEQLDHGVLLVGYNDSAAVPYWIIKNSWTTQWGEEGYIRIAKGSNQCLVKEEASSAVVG
Text: as §1
Enzymatic Assay Materials […]
Recombinant cruzain, consisting of the catalytic domain without the C-terminal extension, was expressed and purified as described previously.16,17 All substrates were purchased from Bachem. Stock solutions of the inhibitors and substrates were prepared in DMSO. […]
Kinetic measurements were performed in duplicate with a fluorometric assay (Biotek SynergyTM HT) using Corning 96-well black microplates (200 µL assay volume) at 25 °C. Recombinant cruzain was incubated in 100 mM sodium acetate, pH 5.5, 5 mM DTT, 0.01 % Triton X-100 for 20 min, followed by an additional 2 min incubation with inhibitors before the reaction was started by the addition of the fluorogenic substrate Cbz-Phe-Arg-AMC. Substrate hydrolysis was measured for 5 min fluorometrically at excitation and emission wavelengths of 360 and 460 nm, respectively. […]

human cathepsin K = molecular target: T3, human cathepsin K (Homo sapiens, UniProt P43235); experiment: Cathepsin K inhibition assay; assay type: biochemical; settings: duplicate measurements; read-out: Ki cat K
T3 construct: purchased Enzo
T3 sequence (P43235 115-329): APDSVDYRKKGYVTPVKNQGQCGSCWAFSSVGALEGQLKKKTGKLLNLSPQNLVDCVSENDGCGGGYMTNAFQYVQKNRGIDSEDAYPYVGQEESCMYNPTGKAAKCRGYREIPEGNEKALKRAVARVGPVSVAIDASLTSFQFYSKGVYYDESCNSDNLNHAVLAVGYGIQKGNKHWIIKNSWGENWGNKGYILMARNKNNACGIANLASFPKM
Text: as §1, §3, §4, §5
inhibitors and substrates were prepared in DMSO. […]
Cathepsin K Inhibition Assay
Kinetic measurements were performed in duplicate in 96-well microplates (100 µL assay volume) at 25 °C, as described.18-20 Human recombinant cathepsin K was activated by a 1:100 dilution with assay buffer (100 mM sodium citrate, pH 5.0, 100 mM NaCl, 1 mM EDTA, 0.01% CHAPS) containing 5 mM DTT, and then incubated at 37 °C for 30 min. […] After addition of cathepsin K (2 µL), substrate hydrolysis was measured for 20 min fluorometrically in a FLUOSTAR Optima plate reader at excitation and emission wavelengths of 360 and 440 nm, respectively. […]

human cathepsin L = molecular target: T4, human cathepsin L (Homo sapiens, UniProt P07711); experiment: Cathepsin L inhibition assay; assay type: biochemical; settings: duplicate measurements; read-out: Ki cat L
T4 construct: Human isolated cathepsin L; purchased Enzo
T4 sequence (P07711 114-333): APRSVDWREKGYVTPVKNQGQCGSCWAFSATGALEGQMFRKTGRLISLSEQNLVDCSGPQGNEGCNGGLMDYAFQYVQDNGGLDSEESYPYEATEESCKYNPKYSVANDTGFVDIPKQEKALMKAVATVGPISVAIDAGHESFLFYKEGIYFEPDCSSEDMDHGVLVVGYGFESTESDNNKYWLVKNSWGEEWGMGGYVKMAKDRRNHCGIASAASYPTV
Method: Cathepsin L Inhibition Assay
Kinetic measurements were performed in duplicate in cuvettes (1 mL assay volume) at 37 °C, as described.18-20 Human isolated cathepsin L was activated by a 1:100 dilution with assay buffer (100 mM sodium phosphate buffer, pH 6.0, 100 mM NaCl, 5 mM EDTA, 0.01% Brij 35) containing 5 mM DTT, and then incubated at 37 °C for 30 min. Into a cuvette containing 940 µL assay buffer, 10 µL of the chromogenic substrate Cbz-Phe-Arg-pNA, DMSO and inhibitor solution (10 µL) were pipetted. After the addition of cathepsin L (40 µL), substrate hydrolysis was measured for 20 min spectrophotometrically in a VARIAN/Bio-50/100 photometer at 405 nm. […]
Arg-AMC, cathepsin S and DMSO were 40 µM (= 0.74 × Km), 42 ng mL-1 and 2%, respectively. […]

human cathepsin S = molecular target: T5, human cathepsin S (Homo sapiens, UniProt P25774); experiment: Cathepsin S inhibition assay; assay type: biochemical; settings: duplicate measurements; read-out: Ki cat S
T5 construct: purchased Enzo
T5 sequence (P25774 115-331): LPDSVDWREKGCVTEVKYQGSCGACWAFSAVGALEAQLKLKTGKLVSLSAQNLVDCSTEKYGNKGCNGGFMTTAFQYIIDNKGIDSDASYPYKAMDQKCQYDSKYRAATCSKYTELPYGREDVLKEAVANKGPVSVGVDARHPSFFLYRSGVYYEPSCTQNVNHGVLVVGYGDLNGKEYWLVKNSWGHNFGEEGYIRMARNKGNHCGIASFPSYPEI
Method: Cathepsin S Inhibition Assay
Kinetic measurements were performed in duplicate in 96-well microplates (100 µL assay volume) at 25 °C, as described.18-20 Human recombinant cathepsin S was activated by 1:100 dilution with assay buffer (100 mM sodium citrate, pH 6.0 containing 50 mM NaCl, 2 mM EDTA, 0.01% Triton X-100) containing 5 mM DTT, and then incubated at 37 °C for 60 min. Into a well containing 184 µL assay buffer, 0.8 µL of the fluorogenic substrate Cbz-Phe-Arg-AMC, DMSO and inhibitor solution (3.2 µL) were pipetted. After addition of cathepsin S (12 µL), substrate hydrolysis was measured for 20 min fluorometrically on a FLUOSTAR Optima plate reader at excitation and emission wavelengths of 360 and 440 nm, respectively. The final concentrations of Cbz-Phe-Arg-AMC, cathepsin S and DMSO were 40 µM (= 0.74 × Km), 42 ng mL-1 and 2%, respectively. […]

In the case of 9-SH-closo-1,2-C2B10H11 [compound 2], the “Ki SmCB1” value (SmCB1 [1]) is reported as “inactive”, the “Ki Cat B” value (human cathepsin B) is reported as “weak inhibition” and the Ki (human cathepsin B) is reported as 43800 ± 5600 nM. The Severity score ([2]; 1 μM, 24 h) was 0, the Severity score ([2]; 1 μM, 48 h) was 0 and the Severity score ([2]; 1 μM, 72 h) was 0. The Severity score ([2]; 10 μM, 24 h) was 0, the Severity score ([2]; 10 μM, 48 h) was 0 and the Severity score ([2]; 10 μM, 72 h) was 0. The “anti-schistosomal effect against NTS (in words)” value (shortened to “anti-schistosomal effect”) [2] was “ineffective”.
In the case of 9-phenyl ortho-carborane, the dipole moment [3] is given as 5.0 D.
With N#CC1(NC(=O)[C@H](Cc2cccc(Cl)c2)NC(=O)CSc2ccccc2)CC1 [5a] the Ki (SmCB1 [1]) was 14300 ± 2400 nM, the “Selectivity Ki (cat B)/Ki (SmCB1)” value (SmCB1 [4]) was 0.5 and the Ki (human cathepsin B) was 6800 ± 500 nM. For the same compound, the Ki (cruzain) was 460 ± 10 nM, the Ki (human cathepsin K) was 1410 ± 260 nM and the Ki (human cathepsin L) was 370 ± 20 nM. The Ki (human cathepsin S) was 210 ± 30 nM, the Severity score ([2]; 1 μM, 24 h) was 0 and the Severity score ([2]; 1 μM, 48 h) was 0. For the same compound, the Severity score ([2]; 1 μM, 72 h) was 0, the Severity score ([2]; 10 μM, 24 h) was 0 and the Severity score ([2]; 10 μM, 48 h) was 0. The Severity score ([2]; 10 μM, 72 h) was 0 and the “anti-schistosomal effect” value [2] was “ineffective”.
CC(C)(C)OC(=O)N[C@@H](Cc1cccc(Cl)c1)C(=O)NC1(C#N)CC1 [compound 4] showed a Ki (SmCB1 [1]) of 27100 ± 3200 nM, a Ki (human cathepsin B) of 15500 ± 1700 nM and a Ki (cruzain) of 750 ± 20 nM. It also gave a Ki (human cathepsin K) of 1850 ± 230 nM, a Ki (human cathepsin L) of 250 ± 20 nM and a Ki (human cathepsin S) of 96 ± 9 nM. The Severity score ([2]; 1 μM, 24 h) was 0, the Severity score ([2]; 1 μM, 48 h) was 0 and the Severity score ([2]; 1 μM, 72 h) was 0. It also gave a Severity score ([2]; 10 μM, 24 h) of 0, a Severity score ([2]; 10 μM, 48 h) of 0 and a Severity score ([2]; 10 μM, 72 h) of 0. The “anti-schistosomal effect” value [2] was “ineffective”.
With “closo-1,2-C2B10H12 [compound 1, reference compound]” the “Ki SmCB1” value (SmCB1 [1]) was “inactive”, the “Ki Cat B” value (human cathepsin B) was “inactive” and the Ki (human cathepsin B) was > 100000 nM. For the same compound, the Severity score ([2]; 1 μM, 24 h) was 0, the Severity score ([2]; 1 μM, 48 h) was 0 and the Severity score ([2]; 1 μM, 72 h) was 0. For the same compound, the Severity score ([2]; 10 μM, 24 h) was 0, the Severity score ([2]; 10 μM, 48 h) was 0 and the Severity score ([2]; 10 μM, 72 h) was 0. For the same compound, the “anti-schistosomal effect” value [2] was “ineffective” and the dipole moment [3] was 4.5 D.
